Results: US20170014477A1, “FREE RAPTOR REDUCES AGING- AND OBESITY-INDUCED FATTY LIVER” (The Trustees of Columbia University in the City of New York, priority 2015, published 2017)

Assays:
[1] = system: PHLPP2; assay: PHLPP2 phosphorylation (Phos-tag mobility shift; IP and phospho-PKA substrate immunoblot) in hepatocytes; assay type: cell-based, mouse
Text: To investigate the effect of PKA on PHLPP2 phosphorylation in primary hepatocytes, either WT or S1119/1210A mutant of PHLPP2 was immunoprecipitated from cell extracts treated with glucagon or forskolin, and then subjected to immunoblot analysis with an antibody specific for phosphorylated PKA substrate proteins.

[2] = system: PHLPP2; assay: Western blot of PHLPP2 levels in primary hepatocytes / Hepa1c1c7 cells; assay type: cell-based, mouse; conditions: short- or long-term treatment, Rapamycin (20 nM), Torin1 (250 nM)
Text: The GFP, Raptor and PHLPP1/2 adenoviruses have been described (Miyamoto et al., 2010; Pajvani et al., 2013). The HA-Flag-PHLPP2 adenovirus was constructed by inserting a Flag sequence into HA-PHLPP2 vector (Addgene #22403, courtesy of Alexandra Newton) and adenoviruses encoding HA-Flag-PHLPP2 generated by Welgen, Inc. (Worcester, Mass.). Mouse shPhlpp1 or 2 target sequences were selected among three candidate sequences, respectively and adenoviruses encoding shPhlpp1 or 2 generated by Welgen, Inc. For in vivo studies, we injected […] or 2.5×10^8 purified viral particles per g body weight; we performed metabolic analysis on days 3-5 and euthanized the mice at day 8 or 10 after injection. Infection with adenovirus in primary hepatocytes or Hepa1c1c7 cells was performed at 2.5, 5, or 10 multiplicity of infection (MOI).
We isolated and cultured primary mouse hepatocytes as previously described (Kim et al., 2012). For inhibitor experiments, we treated hepatocytes with 20 nM rapamycin (Cell Signaling), 250 nM Torin1, or vehicle for either 1 h or 24 h.
Tissues and cells were lysed in 0.3% CHAPS lysis buffer (Kim et al., 2002) unless otherwise stated, and whole cell lysates obtained by centrifugation. […]

[3] = system: free Raptor; assay: DSS crosslinking assay for free Raptor in hepatocytes and hepatoma cells; assay type: cell-based, mouse
Protocol: Liver was lysed in 1% Triton X-100 lysis buffer (Kim et al., 2002) with or without 2.5 mg/ml DSP or DSS, and incubated for 2 h on ice. Crosslinking was quenched with 1 M Tris-HCl (pH 7.5) for 30 min on ice. For in vitro crosslinking assays, DSP or DSS were added to a final concentration of 1 mg/ml culture medium, and quenched by Tris-HCl as above. Equal protein (BCA assay, Thermo) was then subjected to Western blot, with or without IP.

[4] = target: T1, PH domain leucine-rich repeat protein phosphatase 2 (PHLPP2), endogenous (mouse, UniProt Q8BXA7 1-1320); assay: anti-PHLPP2 IP from primary hepatocytes and Hepa1c1c7 cells with or without MG-132, Western blot (FIG. 19i, FIG. 28j)
T1 construct: Endogenous protein, immunoprecipitated with anti-PHLPP2 or co-precipitated with anti-Akt; also called endogenous PHLPP2
T1 sequence (looked up): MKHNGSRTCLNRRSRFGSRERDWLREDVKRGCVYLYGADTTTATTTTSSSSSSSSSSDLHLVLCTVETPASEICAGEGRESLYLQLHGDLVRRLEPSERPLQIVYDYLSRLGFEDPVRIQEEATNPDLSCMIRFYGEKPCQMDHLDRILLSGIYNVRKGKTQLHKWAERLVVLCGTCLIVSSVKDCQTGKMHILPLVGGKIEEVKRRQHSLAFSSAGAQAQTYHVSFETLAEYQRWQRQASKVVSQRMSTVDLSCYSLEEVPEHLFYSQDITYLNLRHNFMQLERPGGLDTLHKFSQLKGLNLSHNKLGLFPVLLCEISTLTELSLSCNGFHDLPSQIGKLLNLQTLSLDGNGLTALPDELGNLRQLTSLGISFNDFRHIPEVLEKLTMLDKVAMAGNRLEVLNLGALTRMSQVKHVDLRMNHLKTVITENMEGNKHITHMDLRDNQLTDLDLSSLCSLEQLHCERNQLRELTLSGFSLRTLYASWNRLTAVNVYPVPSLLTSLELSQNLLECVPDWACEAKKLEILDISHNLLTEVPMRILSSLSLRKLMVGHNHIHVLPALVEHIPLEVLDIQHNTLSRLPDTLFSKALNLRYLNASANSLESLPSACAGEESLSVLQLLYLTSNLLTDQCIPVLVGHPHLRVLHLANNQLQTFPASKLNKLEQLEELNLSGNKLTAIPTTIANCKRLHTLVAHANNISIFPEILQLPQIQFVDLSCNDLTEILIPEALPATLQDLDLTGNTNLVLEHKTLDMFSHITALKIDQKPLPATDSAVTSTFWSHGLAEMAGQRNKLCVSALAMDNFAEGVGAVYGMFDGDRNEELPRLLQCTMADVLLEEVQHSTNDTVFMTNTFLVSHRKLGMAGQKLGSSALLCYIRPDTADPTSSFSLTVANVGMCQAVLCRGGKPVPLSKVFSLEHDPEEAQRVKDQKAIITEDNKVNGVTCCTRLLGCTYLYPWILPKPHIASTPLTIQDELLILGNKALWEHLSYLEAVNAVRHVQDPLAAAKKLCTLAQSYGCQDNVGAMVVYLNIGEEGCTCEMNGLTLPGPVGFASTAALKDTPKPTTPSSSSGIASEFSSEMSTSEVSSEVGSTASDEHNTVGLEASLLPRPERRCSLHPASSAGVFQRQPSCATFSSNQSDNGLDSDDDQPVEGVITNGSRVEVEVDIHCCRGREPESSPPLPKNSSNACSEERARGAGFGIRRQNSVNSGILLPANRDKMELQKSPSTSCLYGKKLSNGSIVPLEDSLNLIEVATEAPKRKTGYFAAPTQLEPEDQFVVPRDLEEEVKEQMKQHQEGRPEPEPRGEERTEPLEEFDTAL

For `O=S(=O)(NCCNC/C=C/c1ccc(Br)cc1)c1cccc2cnccc12` [H89], the “forskolin-mediated PHLPP2 phosphorylation” value ([1]; pretreatment with PKA inhibitor) was “reduced”.

With `CCC(=O)N1CCN(c2ccc(-n3c(=O)ccc4cnc5ccc(-c6cnc7ccccc7c6)cc5c43)cc2C(F)(F)F)CC1` [Torin1] the “decrease of basal or Raptor-increased PHLPP2 levels” value [2] was “neither”.

With glucagon the “PKA-mediated phosphorylation of WT PHLPP2” value ([1]; primary hepatocytes, IP, phosphorylated PKA substrate antibody, not S1119A/S1210A mutant) was “robustly increased”.

With insulin the “free Raptor levels” value ([3]; brief exposure) was “ineffectual” and the “free Raptor levels” value ([3]; prolonged high-dose treatment to induce insulin resistance, primary hepatocytes or Hepa1c1c7 cells) was “reduced”.

B1: β-TrCP (beta-transducin repeat-containing protein) (other, mouse, UniProt Q3ULA2 1-605, looked up)
chain: MDPAEAVLQEKALKFMCSMPRSLWLGCSSLADSMPSLRCLYNPGTGALTAFQNSSEREDCNNGEPPRKIIPEKNSLRQTYNSCARLCINQETVCLTSTAMKTENCVAKAKLANGTSSMIVPKQRKLSASYEKEKELCVKYFEQWSESDQVEFVEHLISQMCHYQHGHINSYLKPMLQRDFITALPARGLDHIAENILSYLDAKSLCAAELVCKEWYRVTSDGMLWKKLIERMVRTDSLWRGLAERRGWGQYLFKNKPPDENAPPNSFYRALYPKIIQDIETIESNWRCGRHSLQRIHCRSETSKGVYCLQYDDQKIVSGLRDNTIKIWDKSTLECKRILTGHTGSVLCLQYDERVIITGSSDSTVRVWDVNAGEMLNTLIHHCEAVLHLRFNNGMMVTCSKDRSIAVWDMASPTDITLRRVLVGHRAAVNVVDFDDKYIVSASGDRTIKVWNTSTCEFVRTLNGHKRGIACLQYRDRLVVSGSSDNTIRLWDIECGACLRVLEGHEELVRCIRFDNKRIVSGAYDGKIKVWDLMAALDPRAPAGTLCLRTLVEHSGRVFRLQFDEFQIVSSSHDDTILIWDFLNDPAAHAEPPRSPSRTYTYISR
notes: E3 ligase substrate recognition subunit of the SCF complex; endogenous protein in mouse cells
B1: binds [4].
